Numbering of substitutions follows the chain as printed.
Columns and labels:
K562 cells = assay: Viability of cells loaded onto the device after chemical treatment (epistasis experiment); type: cell-based, human
Procedure: (§1) For the perturb-seq epistasis experiment, seven three-guide vectors targeting every possible combination of ATF6, IRE1α, and PERK as well as two independent three-guide vectors with three negative control guide RNAs and different barcodes were individually packaged into lentiviruses. Freshly produced (i.e. not frozen) lentiviruses were spinfected into cBA007 cells (at 33° C. for 2 h at 1000×g) in media supplemented with 8 μg/mL polybrene. The virus was removed by centrifugation and cells were resuspended in fresh media. Three days after infection, transduction efficiencies of 5-10% were measured by flow cytometry. Cells were combined into a pool with equal numbers of transduced (BFP+) cells for each vector (resulting in 2-fold excess of negative control vectors) and the combined cells were then sorted on a BD 63 FACS Aria2 to near purity. To limit heterogenous effects of cell microenvironments caused by cell settling, the sorted cells were grown with continuous agitation on an orbital shaker. Five days after infection, the pooled and sorted cells were split into three populations, which were treated as follows: 1) DMSO control treatment for 6 hr; 2) treatment with 4 μg/mL tunicamycin for 6 hr; and 3) treatment with 100 nM thapsigargin for 4 hr. […]

[1] = tested on: K562 cells with dCas9-KRAB; assay: Single-cell RNA-seq cell cycle analysis of thapsigargin-treated cells; type: cell-based, human; conditions: thapsigargin treatment, UPR epistasis experiment
Procedure: as §1, with “purity.” for “purity. To limit heterogenous effects of cell microenvironments caused by cell settling, the sorted cells were grown with continuous agitation on an orbital shaker. Five days after infection, the pooled and sorted cells were split into three populations, which were treated as follows: 1) DMSO control treatment for 6 hr; 2) treatment with 4 μg/mL tunicamycin for 6 hr; and 3) treatment with 100 nM thapsigargin for 4 hr.”
Single-cell analysis in FIG. 3 A population consisting of cells treated with 100 nM thapsigargin in each of our 8 genetic backgrounds was formed, along with DMSO-treated control cells. As outlined in the “Low cell count/inviable cell removal” section, cells with substantially lower than average UMI counts or that scored strongly for inviability markers from analysis were removed, as these groups partitioned away from the rest of the population in preliminary analyses. […]

CHOP mRNA = assay: RT-qPCR of CHOP mRNA in sgRNA-transduced cells +/- thapsigargin; type: cell-based, human; conditions: cells transduced with SEC61A1-, SEC61B-, or SEC61G-targeting sgRNAs; 0.5 μM Tg for 1.5 hours
Procedure: RT-qPCR and semi-quantitative PCR for XBP1 mRNA splicing Cells were harvested and total RNA was isolated using TRIzol® Reagent (ThermoFisher Scientific, 15596-018) and Phase Lock Gel tubes (VWR, 10052-170) or NucleoSpin® RNA (Macherey-Nagel, 67 740955.50) essentially according to manufacturers' instructions. RNA prepared by TRIzol® extraction was treated with TURBO™ DNase (ThermoFisher Scientific). RNA was converted to cDNA using SuperScript® II or SuperScript® III Reverse Transcriptase (ThermoFisher Scientific) under standard conditions with oligo(dT) primers or random hexamers with or without RNaseOUT™ Recombinant Ribonuclease Inhibitor (ThermoFisher Scientific). Quantitative PCR reactions were prepared with 1× master mix containing 1× Colorless GoTaq® Reaction Buffer (Promega, M792A), MgCl2 (0.7 mM), dNTPs (0.2 mM each), primers (0.75 μM each), and 1000× SYBR Green with GoTaq® DNA polymerase (Promega, M830B) in 22 μL reactions. Reactions were run on a LightCycler® 480 Instrument (Roche). Semi-quantitative XBP1-specific PCR reactions were prepared with 2 μL of cDNA diluted 1:10 using a master mix containing 0.9× Colorless GoTaq® Reaction Buffer (Promega, M792A), dNTPs (0.23 mM each), primers (0.45 μM each) with GoTaq® DNA polymerase (Promega, M830B) in 22.1 μL reactions. […]

[2] = tested on: mCherry reporter of IRE1α activation; assay: UPRE mCherry / EF1α GFP reporter in K562 reporter cells (cBA011), flow cytometry; type: cell-based, human; conditions: K562 reporter cells (cBA011) treated with tunicamycin
[3] = tested on: genomically integrated GFP; assay: GFP knockdown by sgRNA expression vectors, flow cytometry; type: cell-based, human; conditions: paired with EGFP-NT2 protospacer; cr2 from mU6, cr3 from hU6 promoter
mRFP = assay: E. coli CRISPRi reporter strain, knockdown of mRFP by constant region variants; type: cell-based; conditions: mRFP-targeting protospacer
Description: Design and cloning of constant region variants for testing in E. coli. Constant region bases to mutate were identified by inspection of the crystal structure of Cas9 bound to guide RNA and target DNA (FIG. 9D, PDB ID codes 4OO8, 4UN3, 4ZT0 (Nishimasu et al. 2014, Anders et al. 2014, Jiang et al. 2015)). […] If applicable, sequence conservation patterns of the base in crRNAs/tracrRNAs of Streptococcus species and previous reports of constant regions carrying changes at the base (Briner et al. 2014, Dang et al. 2015) were used to determine the type of mutation. In this fashion, 15 constant region variants with mutations in different parts of the constant region were designed (FIG. 2D). The most diverse constant region variants cr2 and cr3 were designed by combining multiple individual mutations (FIG. 2D). To rapidly assess the activity of the variant constant regions, the variants were fused to a mRFP-targeting guide RNA (mRFP-NT1, sequence […] (SEQ ID NO: 36)) (Qi et al. 2013) and tested in an E. coli CRISPRi reporter strain for knockdown of mRFP (see below). To eliminate variability from copy number variation, guide RNAs were cloned into a plasmid for site-specific integration into the E. coli genome at attL and expressed from single copy from an IPTG-inducible PLlacO-1 promoter (Lutz, Bujard 1997). […]

Question: For `C/C=C(/C)C(=O)O[C@H]1C(C)=C2[C@H]([C@@H]1OC(=O)CCCCCCC)[C@@](C)(OC(C)=O)C[C@H](OC(=O)CCC)[C@@]1(O)[C@H]2OC(=O)[C@@]1(C)O` [thapsigargin], which “viable cells loaded onto the device” value (K562 cells; human, 4 hr, 100 nM) is on record?
Answer: The value was 85.3%.

Question: And the cell cycle effect [1]?
Answer: The cell cycle effect was “PERK-dependent cell cycle arrest in G1”.

Question: What about the CHOP expression (CHOP mRNA) of the same molecule?
Answer: Its CHOP expression is “CHOP upregulation”.

Question: tunicamycin was tested. Which “XBP1-dependent mCherry induction” value [2] did it give?
Answer: Its value is at most 16 fold.

Question: And the “induction of GFP (EF1a promoter control reporter)” value [2]?
Answer: Its value is “no similar induction”.

Question: What about the “viable cells loaded onto the device” value (K562 cells; 4 μg/mL tunicamycin for 6 hr or 100 nM thapsigargin for 4 hr) of the same molecule?
Answer: The value was 87.9%.

B1: cr2: sgRNA constant region, combination of 3, 5, 9, 15, SEQ ID NO: 25 (nucleic acid)
chain: GTTTGAGAGCTAAGCAGAAAGCTGCATAGCAAGTTCAAATAAGGCTAGTCCGTACACAACTTGAAAAAGTGGCAGCCGAGTCGGCTGCTTTTTTT
modifications: expressed or natural sequence
Question: How did the “GFP depletion in K562 cells” value [3] turn out when B1 was run?
Answer: Its value is “indistinguishable from that of the Perturb-seq vector”.

Question: What about the “function of constant region in bacteria” value (mRFP) of the same molecule?
Answer: The value was “functional in bacteria”.

B2: cr3: sgRNA constant region, combination of 2, 4, 10, 14, SEQ ID NO: 26 (nucleic acid)
chain: B1 chain with G5C, G17C, A20G, G21A, C22G, C36G, A54T, C55T, G75C, C85G
modifications: expressed or natural sequence
Question: For B2, which “GFP depletion in K562 cells” value [3] is on record?
Answer: Its value is “indistinguishable from that of the Perturb-seq vector”.

Question: What about the “function of constant region in bacteria” value (mRFP) of the same molecule?
Answer: The value was “functional in bacteria”.

— patent US20190300868A1, “COMPOSITIONS AND METHODS FOR CRISPR-BASED SCREENING” (The Regents of the University of California, priority 2016, published 2019)
